{"source": "paper PMC11233931", "about": "“Remodeling tumor‐associated macrophage for anti‐cancer effects by rational design of irreversible inhibition of mitogen‐activated protein kinase‐activated protein kinase 2” (MedComm, 2024)", "test_in_all_cases": "Eurofins kinase selectivity profile against 380 other human recombinant kinases (Table S2)", "assay_type_in_all_cases": "biochemical", "key": {"[1]": {"target": "T1, 380 human recombinant protein kinases (Homo sapiens, UniProt O15530)", "T1 construct": "purchased Eurofins (Celle Lévescault)", "T1 sequence (O15530 1-556)": "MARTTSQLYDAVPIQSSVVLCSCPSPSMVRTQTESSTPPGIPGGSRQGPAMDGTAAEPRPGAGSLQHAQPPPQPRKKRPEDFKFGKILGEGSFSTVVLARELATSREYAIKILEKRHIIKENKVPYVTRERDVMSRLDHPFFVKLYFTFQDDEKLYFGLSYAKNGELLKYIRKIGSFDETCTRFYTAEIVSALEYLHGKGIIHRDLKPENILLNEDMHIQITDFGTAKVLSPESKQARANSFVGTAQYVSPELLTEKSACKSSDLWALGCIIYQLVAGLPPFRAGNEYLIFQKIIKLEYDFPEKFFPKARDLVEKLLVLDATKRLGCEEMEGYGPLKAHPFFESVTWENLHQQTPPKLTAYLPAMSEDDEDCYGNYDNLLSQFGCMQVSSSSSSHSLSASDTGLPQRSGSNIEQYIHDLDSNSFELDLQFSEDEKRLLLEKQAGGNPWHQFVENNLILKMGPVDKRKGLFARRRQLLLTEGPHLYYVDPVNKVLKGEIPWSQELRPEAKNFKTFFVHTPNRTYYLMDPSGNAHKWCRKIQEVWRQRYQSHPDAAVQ", "conditions": "PDK1(h), read-out: Inhibition rate", "method_in_brief": "(§1)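 Profiling against 380 human recombinant kinases carried out by Eurofins at various compound concentrations.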"}, "[2]": {"target": "T2, 380 human recombinant protein kinases (Homo sapiens, UniProt O75676)", "T2 construct": "purchased Eurofins (Celle Lévescault)", "T2 sequence (O75676 whole entry)": "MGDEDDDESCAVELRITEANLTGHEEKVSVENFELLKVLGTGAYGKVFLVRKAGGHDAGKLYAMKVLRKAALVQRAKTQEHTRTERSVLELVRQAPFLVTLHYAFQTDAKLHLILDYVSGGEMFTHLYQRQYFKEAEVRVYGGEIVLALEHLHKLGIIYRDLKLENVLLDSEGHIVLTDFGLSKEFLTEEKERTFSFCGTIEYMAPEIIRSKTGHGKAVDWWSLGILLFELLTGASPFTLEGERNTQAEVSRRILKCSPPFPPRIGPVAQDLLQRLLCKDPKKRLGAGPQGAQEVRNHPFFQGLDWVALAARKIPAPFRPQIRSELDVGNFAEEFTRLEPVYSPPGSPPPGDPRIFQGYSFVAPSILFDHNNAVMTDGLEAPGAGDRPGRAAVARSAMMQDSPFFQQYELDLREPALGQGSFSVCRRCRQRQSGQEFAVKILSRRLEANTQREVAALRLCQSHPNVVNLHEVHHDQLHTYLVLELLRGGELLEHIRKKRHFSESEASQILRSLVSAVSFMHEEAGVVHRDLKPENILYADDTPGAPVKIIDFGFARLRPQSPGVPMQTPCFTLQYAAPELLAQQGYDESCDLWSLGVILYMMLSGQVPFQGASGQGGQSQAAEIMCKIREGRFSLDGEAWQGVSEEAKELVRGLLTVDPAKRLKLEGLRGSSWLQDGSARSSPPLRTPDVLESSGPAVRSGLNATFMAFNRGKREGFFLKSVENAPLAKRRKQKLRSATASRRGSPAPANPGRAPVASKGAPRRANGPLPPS", "conditions": "MSK2(h), read-out: Inhibition rate", "method_in_brief": "as §1"}, "[3]": {"target": "T3, 380 human recombinant protein kinases (Homo sapiens, UniProt O94921)", "T3 construct": "purchased Eurofins (Celle Lévescault)", "T3 sequence (O94921 whole entry)": "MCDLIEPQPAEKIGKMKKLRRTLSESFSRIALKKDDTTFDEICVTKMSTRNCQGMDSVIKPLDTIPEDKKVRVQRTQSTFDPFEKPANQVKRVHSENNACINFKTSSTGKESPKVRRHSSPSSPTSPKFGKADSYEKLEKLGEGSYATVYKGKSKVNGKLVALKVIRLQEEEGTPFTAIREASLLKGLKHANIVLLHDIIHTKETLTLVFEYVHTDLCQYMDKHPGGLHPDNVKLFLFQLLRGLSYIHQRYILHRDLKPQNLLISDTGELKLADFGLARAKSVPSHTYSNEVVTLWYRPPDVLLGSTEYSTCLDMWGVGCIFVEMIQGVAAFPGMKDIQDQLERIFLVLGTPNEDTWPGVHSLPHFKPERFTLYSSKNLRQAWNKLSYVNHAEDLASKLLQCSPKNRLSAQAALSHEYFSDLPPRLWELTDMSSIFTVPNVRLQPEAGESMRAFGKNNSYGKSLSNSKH", "conditions": "CDK14/cyclinY(h), read-out: Inhibition rate", "method_in_brief": "as §1"}, "[4]": {"target": "T4, 380 human recombinant protein kinases (Homo sapiens, UniProt P31749)", "T4 construct": "purchased Eurofins (Celle Lévescault)", "T4 sequence (P31749 whole entry)": "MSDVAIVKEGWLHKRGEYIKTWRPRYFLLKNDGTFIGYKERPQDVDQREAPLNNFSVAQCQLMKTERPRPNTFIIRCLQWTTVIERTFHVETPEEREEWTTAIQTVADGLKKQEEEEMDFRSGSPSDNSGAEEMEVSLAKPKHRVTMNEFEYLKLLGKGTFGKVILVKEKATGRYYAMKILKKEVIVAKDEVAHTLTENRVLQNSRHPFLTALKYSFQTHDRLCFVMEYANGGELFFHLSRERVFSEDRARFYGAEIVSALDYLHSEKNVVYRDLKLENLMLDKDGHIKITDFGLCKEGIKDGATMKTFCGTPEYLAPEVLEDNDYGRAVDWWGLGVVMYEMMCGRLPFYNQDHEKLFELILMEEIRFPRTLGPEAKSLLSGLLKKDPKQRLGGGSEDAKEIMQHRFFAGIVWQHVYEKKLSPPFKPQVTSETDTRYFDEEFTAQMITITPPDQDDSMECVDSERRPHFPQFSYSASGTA", "conditions": "PKBα(h), read-out: Inhibition rate", "method_in_brief": "as §1"}, "[5]": {"target": "T5, 380 human recombinant protein kinases (Homo sapiens, UniProt P42338)", "T5 construct": "purchased Eurofins (Celle Lévescault)", "T5 sequence (P42338 whole entry)": "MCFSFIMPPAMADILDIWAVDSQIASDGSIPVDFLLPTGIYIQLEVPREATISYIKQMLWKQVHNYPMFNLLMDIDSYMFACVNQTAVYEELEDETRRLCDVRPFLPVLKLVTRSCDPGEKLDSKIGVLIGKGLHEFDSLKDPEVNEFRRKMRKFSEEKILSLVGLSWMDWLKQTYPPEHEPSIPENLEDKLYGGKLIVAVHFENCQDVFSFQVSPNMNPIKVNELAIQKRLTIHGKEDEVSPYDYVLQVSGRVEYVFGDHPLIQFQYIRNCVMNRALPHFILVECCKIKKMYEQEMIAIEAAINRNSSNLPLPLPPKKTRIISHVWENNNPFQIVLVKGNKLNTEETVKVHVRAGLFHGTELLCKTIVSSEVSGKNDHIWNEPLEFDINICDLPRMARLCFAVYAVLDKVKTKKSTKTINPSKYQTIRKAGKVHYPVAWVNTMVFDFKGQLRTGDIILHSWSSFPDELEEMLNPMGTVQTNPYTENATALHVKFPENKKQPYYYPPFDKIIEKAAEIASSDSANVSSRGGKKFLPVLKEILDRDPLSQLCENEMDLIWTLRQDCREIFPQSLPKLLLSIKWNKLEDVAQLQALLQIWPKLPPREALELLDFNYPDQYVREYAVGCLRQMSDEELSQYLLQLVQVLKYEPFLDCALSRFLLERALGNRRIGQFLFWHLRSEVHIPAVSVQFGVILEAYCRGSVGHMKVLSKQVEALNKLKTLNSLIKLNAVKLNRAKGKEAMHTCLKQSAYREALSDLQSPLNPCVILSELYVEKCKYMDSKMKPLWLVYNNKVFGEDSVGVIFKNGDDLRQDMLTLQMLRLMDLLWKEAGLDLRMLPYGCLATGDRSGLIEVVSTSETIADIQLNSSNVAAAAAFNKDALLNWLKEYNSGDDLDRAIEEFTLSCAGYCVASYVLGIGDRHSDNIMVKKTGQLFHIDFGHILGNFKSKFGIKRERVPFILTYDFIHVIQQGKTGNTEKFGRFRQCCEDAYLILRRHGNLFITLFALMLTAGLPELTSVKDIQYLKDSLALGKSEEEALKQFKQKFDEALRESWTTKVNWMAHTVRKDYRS", "conditions": "PI3 Kinase (p110β/p85α)(h), read-out: Inhibition rate (%)", "method_in_brief": "as §1"}, "[6]": {"target": "T6, 380 human recombinant protein kinases (Homo sapiens, UniProt Q12851)", "T6 construct": "purchased Eurofins (Celle Lévescault)", "T6 sequence (Q12851 1-820)": "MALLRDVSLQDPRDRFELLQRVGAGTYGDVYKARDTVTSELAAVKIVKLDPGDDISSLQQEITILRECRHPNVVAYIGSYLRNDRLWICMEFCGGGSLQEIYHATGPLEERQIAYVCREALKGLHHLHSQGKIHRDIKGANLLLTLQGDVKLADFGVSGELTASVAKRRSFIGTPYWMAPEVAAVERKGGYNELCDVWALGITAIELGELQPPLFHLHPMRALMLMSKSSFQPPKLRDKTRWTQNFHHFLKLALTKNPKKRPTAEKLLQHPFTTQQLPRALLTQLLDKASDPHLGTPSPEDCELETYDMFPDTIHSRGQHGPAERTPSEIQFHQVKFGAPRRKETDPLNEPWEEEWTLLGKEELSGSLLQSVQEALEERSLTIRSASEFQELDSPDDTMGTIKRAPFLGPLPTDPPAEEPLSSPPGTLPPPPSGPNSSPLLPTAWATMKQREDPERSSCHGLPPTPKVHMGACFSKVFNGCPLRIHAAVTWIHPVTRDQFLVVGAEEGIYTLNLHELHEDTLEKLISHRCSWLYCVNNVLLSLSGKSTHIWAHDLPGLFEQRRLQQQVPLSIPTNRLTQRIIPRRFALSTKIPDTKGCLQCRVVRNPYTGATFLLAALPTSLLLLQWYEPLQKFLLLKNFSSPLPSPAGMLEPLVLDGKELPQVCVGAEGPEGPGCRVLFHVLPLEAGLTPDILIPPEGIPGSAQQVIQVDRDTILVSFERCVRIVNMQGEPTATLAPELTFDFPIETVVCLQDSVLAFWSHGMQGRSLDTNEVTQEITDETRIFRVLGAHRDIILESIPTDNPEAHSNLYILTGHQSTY", "conditions": "GCK(h), read-out: Inhibition rate", "method_in_brief": "as §1"}, "[7]": {"target": "T7, 380 human recombinant protein kinases (Homo sapiens, UniProt Q96QT4)", "T7 construct": "purchased Eurofins (Celle Lévescault)", "T7 sequence (Q96QT4 whole entry)": "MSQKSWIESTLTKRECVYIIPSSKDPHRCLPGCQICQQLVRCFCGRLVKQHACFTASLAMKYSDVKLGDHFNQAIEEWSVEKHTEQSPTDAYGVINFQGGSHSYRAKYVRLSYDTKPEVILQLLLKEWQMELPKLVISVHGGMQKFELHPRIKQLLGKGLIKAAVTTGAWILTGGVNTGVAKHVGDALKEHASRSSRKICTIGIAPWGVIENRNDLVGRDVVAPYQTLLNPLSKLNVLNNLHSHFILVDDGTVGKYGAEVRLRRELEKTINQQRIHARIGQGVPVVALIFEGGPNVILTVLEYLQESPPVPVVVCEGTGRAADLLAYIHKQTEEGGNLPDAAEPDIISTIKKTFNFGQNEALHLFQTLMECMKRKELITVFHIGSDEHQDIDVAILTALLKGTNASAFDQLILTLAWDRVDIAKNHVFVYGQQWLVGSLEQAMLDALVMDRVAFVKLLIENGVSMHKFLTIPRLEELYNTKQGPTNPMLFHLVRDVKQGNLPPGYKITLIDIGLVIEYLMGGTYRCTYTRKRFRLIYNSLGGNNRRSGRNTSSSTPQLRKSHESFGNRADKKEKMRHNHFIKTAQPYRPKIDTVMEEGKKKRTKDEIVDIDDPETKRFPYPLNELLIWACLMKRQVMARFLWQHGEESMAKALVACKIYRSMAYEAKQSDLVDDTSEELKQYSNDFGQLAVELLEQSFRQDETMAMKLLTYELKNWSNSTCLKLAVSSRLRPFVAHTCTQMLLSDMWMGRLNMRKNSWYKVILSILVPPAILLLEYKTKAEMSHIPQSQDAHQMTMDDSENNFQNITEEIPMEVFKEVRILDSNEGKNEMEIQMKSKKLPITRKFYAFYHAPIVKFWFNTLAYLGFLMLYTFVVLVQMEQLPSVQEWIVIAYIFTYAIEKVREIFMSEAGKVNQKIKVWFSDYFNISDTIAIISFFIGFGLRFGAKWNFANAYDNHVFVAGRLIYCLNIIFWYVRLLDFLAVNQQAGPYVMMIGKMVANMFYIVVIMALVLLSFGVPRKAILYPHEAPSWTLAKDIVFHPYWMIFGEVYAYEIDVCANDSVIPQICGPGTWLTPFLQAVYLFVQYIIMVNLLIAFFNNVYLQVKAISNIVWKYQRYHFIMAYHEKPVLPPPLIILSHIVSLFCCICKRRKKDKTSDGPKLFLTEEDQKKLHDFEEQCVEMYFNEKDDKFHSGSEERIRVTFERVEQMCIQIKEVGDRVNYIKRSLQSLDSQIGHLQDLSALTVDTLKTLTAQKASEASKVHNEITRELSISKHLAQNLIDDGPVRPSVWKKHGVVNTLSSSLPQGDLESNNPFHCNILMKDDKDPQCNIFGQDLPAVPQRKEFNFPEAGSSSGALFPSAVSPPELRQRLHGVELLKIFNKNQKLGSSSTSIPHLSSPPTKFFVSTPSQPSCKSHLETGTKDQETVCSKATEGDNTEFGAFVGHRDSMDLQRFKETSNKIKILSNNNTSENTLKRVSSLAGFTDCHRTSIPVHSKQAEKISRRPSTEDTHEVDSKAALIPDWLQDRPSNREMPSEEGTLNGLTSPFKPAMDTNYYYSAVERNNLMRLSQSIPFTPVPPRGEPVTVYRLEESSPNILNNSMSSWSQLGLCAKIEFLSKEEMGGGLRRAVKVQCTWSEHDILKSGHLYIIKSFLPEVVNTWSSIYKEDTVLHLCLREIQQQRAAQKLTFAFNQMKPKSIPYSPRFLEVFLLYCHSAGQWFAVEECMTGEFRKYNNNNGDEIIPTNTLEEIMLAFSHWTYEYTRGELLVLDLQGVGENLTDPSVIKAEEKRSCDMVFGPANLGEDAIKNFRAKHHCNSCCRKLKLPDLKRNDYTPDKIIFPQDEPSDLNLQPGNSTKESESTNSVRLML", "conditions": "ChaK1(h), read-out: Inhibition rate", "method_in_brief": "as §1"}, "[8]": {"target": "T8, 380 human recombinant protein kinases (Homo sapiens, UniProt Q9BXA7)", "T8 construct": "purchased Eurofins (Celle Lévescault)", "T8 sequence (Q9BXA7 1-367)": "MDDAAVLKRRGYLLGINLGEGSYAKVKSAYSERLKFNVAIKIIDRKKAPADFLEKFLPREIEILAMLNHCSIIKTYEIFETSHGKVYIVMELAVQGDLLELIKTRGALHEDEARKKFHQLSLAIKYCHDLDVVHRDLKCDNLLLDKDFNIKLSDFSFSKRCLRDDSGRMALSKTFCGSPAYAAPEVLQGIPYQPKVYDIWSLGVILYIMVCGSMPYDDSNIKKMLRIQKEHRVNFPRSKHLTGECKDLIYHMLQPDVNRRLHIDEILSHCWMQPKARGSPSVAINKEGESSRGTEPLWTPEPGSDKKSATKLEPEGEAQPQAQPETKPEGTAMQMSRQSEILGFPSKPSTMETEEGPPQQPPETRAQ", "conditions": "TSSK1(h), read-out: Inhibition rate (%)", "method_in_brief": "as §1"}, "[9]": {"target": "T9, 380 human recombinant protein kinases (Homo sapiens, UniProt Q9Y6M4)", "T9 construct": "purchased Eurofins (Celle Lévescault)", "T9 sequence (Q9Y6M4 whole entry)": "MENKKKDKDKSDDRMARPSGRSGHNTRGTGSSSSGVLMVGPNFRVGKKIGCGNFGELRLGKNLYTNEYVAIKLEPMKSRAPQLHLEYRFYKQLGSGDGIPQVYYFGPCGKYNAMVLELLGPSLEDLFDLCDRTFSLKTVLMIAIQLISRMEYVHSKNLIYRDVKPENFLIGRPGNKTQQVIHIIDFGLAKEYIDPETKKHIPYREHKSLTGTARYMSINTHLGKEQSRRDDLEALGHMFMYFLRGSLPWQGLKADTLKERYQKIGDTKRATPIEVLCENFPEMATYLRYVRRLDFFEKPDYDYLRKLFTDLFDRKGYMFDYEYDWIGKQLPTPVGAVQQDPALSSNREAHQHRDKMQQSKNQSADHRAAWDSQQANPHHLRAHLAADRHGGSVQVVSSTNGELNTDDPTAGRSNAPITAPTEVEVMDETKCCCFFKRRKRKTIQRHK", "conditions": "CK1γ3(h), read-out: Inhibition rate", "method_in_brief": "as §1"}}, "data": [{"smiles": "C=CC(=O)Nc1cc(-c2cc(-c3cc4c([nH]3)CCNC4=O)ccn2)ccc1OC(F)(F)F", "note": "[compound 11]", "values": [{"measurement": "inhibition at 0.01 µM", "setting": "[1]; 10 nM", "value": -9, "unit": "%"}, {"measurement": "inhibition at 0.1 µM", "setting": "[1]; 100 nM", "value": -2, "unit": "%"}, {"measurement": "inhibition at 1 µM", "setting": "[1]; 1000 nM", "value": 3, "unit": "%"}, {"measurement": "inhibition at 0.01 µM", "setting": "[2]; 10 nM", "value": -8, "unit": "%"}, {"measurement": "inhibition at 0.1 µM", "setting": "[2]; 100 nM", "value": -5, "unit": "%"}, {"measurement": "inhibition at 1 µM", "setting": "[2]; 1000 nM", "value": -13, "unit": "%"}, {"measurement": "inhibition at 0.01 µM", "setting": "[3]; 10 nM", "value": -2, "unit": "%"}, {"measurement": "inhibition at 0.1 µM", "setting": "[3]; 100 nM", "value": 7, "unit": "%"}, {"measurement": "inhibition at 1 µM", "setting": "[3]; 1000 nM", "value": 4, "unit": "%"}, {"measurement": "inhibition at 0.01 µM", "setting": "[4]; 10 nM", "value": 2, "unit": "%"}, {"measurement": "inhibition at 0.1 µM", "setting": "[4]; 100 nM", "value": 4, "unit": "%"}, {"measurement": "inhibition at 1 µM", "setting": "[4]; 1000 nM", "value": 14, "unit": "%"}, {"measurement": "inhibition at 0.01 µM", "setting": "[5]; 10 nM", "value": -1, "unit": "%"}, {"measurement": "inhibition at 0.1 µM", "setting": "[5]; 100 nM", "value": -1, "unit": "%"}, {"measurement": "inhibition at 1 µM", "setting": "[5]; 1000 nM", "value": -1, "unit": "%"}, {"measurement": "inhibition at 0.01 µM", "setting": "[6]; 10 nM", "value": -2, "unit": "%"}, {"measurement": "inhibition at 0.1 µM", "setting": "[6]; 100 nM", "value": -9, "unit": "%"}, {"measurement": "inhibition at 1 µM", "setting": "[6]; 1000 nM", "value": 17, "unit": "%"}, {"measurement": "inhibition at 0.01 µM", "setting": "[7]; 10 nM", "value": -7, "unit": "%"}, {"measurement": "inhibition at 0.1 µM", "setting": "[7]; 100 nM", "value": 1, "unit": "%"}, {"measurement": "inhibition at 1 µM", "setting": "[7]; 1000 nM", "value": -5, "unit": "%"}, {"measurement": "inhibition at 0.01 µM", "setting": "[8]; 10 nM", "value": 1, "unit": "%"}, {"measurement": "inhibition at 0.1 µM", "setting": "[8]; 100 nM", "value": 2, "unit": "%"}, {"measurement": "inhibition at 1 µM", "setting": "[8]; 1000 nM", "value": 7, "unit": "%"}, {"measurement": "inhibition at 0.01 µM", "setting": "[9]; 10 nM", "value": -13, "unit": "%"}, {"measurement": "inhibition at 0.1 µM", "setting": "[9]; 100 nM", "value": 15, "unit": "%"}, {"measurement": "inhibition at 1 µM", "setting": "[9]; 1000 nM", "value": 67, "unit": "%"}]}]}
